In patent publication US20140100290A1, “Method of treating a prostate condition” (priority 2012, published 2014):

Assays:
[1] = tested on: cytochrome c release in PC-3 cells; experiment: Western blot analysis of cytochrome c release in PC-3 cells; format: cell-based, Human; conditions: 48 h
Experimental: (§1) Cell Line and Culture Conditions • Human metastatic, androgen insensitive prostate cancer cells, PC-3, were obtained from ATCC (Manassas, Va., USA). Cells were grown in F-12K medium supplemented with 2 mM glutamine, 10% FBS, 100 U/mL penicillin, and 100 μg/mL streptomycin. PC-3 cells were maintained in a humidified atmosphere of 5% CO2 at 37° C. in T-75 flasks and were subcultured when confluent.
Western blotting is a widely used analytical technique for detection of specific proteins separated from one another according to their size by gel electrophoresis. […] Once detected, the target protein will be visualized as a band on a blotting membrane, X-ray film, or an imaging system.
Cytochrome c is a heme-containing component of the electron transport chain in the mitochondrial membrane. […] In order to further confirm that carvacrol induced apoptosis in these cells, the release of cytochrome c from mitochondria into cytosol was analyzed using Western blot analysis in carvacrol-treated cells. […]
After maintaining constant agitation at 4° C. for 30 minutes, lysates were collected in microcentrifuge tubes and centrifuged at 12,000 rpm at 4° C. for 20 minutes. […] Protein concentration was determined using the Pierce® BCA protein assay kit. […] Western blot images are representative of at least 3 independent experiments, while quantification data represent mean±S.E.M. of n≧3 experiments.

PC-3 cells = experiment: Phosphatidylserine externalization by fluorescence microscopy (PSVue 480) in PC-3 cells; format: cell-based, Human; conditions: 10 μM and 1000 μM, 48 hours, dose-dependent
Experimental: as §1
One of the earliest events to occur in apoptosis or programmed cell death is externalization of phosphatidylserine (PS), a membrane phospholipid restricted to the inner leaflet of the lipid bilayer. Redistribution of PS from inner leaflet of plasma membrane lipid bilayer to the outer leaflet occurs in cells undergoing apoptosis. The PSVue™ 480 reagent kit was used to perform the phosphatidylserine (PS) externalization assay. The principle behind this assay involves a strong binding of PSVue™ 480 (fluorescent probe) to the anionic PS residues exposed on the surface of apoptotic cells by its Zn (II)-dipicolylamine (Zn-DPA) functionality, making it a useful apoptotic sensor.
To detect PS externalization, PC-3 cells were seeded at a density of 0.5×10^6 cells/well in flat-bottom, 6-well microtiter plates and were allowed to incubate for 24 h. After 24 h of incubation at 37° C., cells were treated with 10 μM and 1000 μM of carvacrol for 48 h. […]

Q: Which results are given for `Cc1ccc(C(C)C)cc1O` [Carvacrol]?
A: cytochrome c levels in cytosol (Western blot) ([1]; 10 μM, compared to solvent control): Increase in cytochrome c levels in cytosol was observed; cytochrome c levels (Western blot) ([1]; 2000 μM, compared to 10 μM carvacrol-treated cells): decrease in levels of cytochrome c; externalization of phosphatidylserine residues (PSVue 480 positive cells) (PC-3 cells): showed externalization of phosphatidylserine residues
